# Reference: ChEMBL document CHEMBL3526052 (Drug Metab Dispos, 2013)
# pIC50, pKi: −log10 of the molar value.
# Legend:
# [1] = biological target: T1, Equilibrative nucleoside transporter 1 (Homo sapiens, UniProt Q99808); assay: Binding affinity to recombinant human ENT1 expressed in Saccharomyces cerevisiae assessed as inhibition of [3H]-uridine transport after 15 mins by scintillation counting analysis; format: ADME
# T1 sequence (Q99808 whole entry): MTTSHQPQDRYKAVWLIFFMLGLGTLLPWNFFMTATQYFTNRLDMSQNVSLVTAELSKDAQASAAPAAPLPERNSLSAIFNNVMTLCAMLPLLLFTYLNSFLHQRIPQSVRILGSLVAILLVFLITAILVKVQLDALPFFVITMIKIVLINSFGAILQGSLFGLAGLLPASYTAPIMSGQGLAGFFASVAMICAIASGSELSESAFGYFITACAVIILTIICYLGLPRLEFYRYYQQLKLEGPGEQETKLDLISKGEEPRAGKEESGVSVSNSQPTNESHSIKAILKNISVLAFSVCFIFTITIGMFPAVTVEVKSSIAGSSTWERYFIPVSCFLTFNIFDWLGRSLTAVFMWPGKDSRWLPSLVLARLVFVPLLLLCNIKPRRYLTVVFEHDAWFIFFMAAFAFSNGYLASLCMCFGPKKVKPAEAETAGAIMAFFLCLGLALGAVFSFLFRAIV
# [2] = biological target: T2, Equilibrative nucleoside transporter 2 (Homo sapiens, UniProt Q14542); assay: Binding affinity to recombinant human ENT2 expressed in Saccharomyces cerevisiae assessed as inhibition of [3H]-uridine transport after 15 mins by scintillation counting analysis; format: ADME
# T2 sequence (Q14542 whole entry): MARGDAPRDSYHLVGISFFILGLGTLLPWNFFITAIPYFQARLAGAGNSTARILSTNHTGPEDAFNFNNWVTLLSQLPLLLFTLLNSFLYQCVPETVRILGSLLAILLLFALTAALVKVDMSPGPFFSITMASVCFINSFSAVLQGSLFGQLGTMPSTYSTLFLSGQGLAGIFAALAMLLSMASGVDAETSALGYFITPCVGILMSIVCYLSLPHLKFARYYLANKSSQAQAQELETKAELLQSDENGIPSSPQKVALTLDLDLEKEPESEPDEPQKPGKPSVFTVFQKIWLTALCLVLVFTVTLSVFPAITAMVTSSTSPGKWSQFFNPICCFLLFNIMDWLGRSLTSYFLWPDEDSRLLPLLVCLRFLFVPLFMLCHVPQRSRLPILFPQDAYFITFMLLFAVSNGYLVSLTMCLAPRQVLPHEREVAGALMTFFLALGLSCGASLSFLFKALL
# [3] = biological target: T3, Sodium/nucleoside cotransporter 1 (Homo sapiens, UniProt O00337); assay: Binding affinity to recombinant human CNT1 expressed in Saccharomyces cerevisiae assessed as inhibition of [3H]-uridine transport after 15 mins by scintillation counting analysis; format: ADME
# T3 sequence (O00337 whole entry): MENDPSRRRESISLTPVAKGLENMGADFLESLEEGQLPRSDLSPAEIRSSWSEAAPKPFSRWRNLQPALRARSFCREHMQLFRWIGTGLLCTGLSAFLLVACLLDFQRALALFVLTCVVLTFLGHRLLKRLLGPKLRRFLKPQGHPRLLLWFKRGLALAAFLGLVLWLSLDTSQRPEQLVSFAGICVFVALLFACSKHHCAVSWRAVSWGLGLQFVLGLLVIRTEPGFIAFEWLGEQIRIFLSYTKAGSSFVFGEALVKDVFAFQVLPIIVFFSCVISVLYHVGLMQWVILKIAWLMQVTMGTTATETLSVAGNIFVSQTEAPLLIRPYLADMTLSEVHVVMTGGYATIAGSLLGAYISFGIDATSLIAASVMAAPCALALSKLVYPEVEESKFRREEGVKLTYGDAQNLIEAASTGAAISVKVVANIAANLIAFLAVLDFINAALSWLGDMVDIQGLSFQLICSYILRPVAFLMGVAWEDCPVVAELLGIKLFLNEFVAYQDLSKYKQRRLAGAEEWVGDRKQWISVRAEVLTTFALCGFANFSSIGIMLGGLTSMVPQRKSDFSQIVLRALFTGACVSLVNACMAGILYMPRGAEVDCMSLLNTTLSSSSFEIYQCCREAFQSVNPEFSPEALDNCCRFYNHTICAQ
# [4] = biological target: T4, Sodium/nucleoside cotransporter 2 (Homo sapiens, UniProt O43868); assay: Binding affinity to recombinant human CNT2 expressed in Saccharomyces cerevisiae assessed as inhibition of [3H]-uridine transport after 15 mins by scintillation counting analysis; format: ADME
# T4 sequence (O43868 whole entry): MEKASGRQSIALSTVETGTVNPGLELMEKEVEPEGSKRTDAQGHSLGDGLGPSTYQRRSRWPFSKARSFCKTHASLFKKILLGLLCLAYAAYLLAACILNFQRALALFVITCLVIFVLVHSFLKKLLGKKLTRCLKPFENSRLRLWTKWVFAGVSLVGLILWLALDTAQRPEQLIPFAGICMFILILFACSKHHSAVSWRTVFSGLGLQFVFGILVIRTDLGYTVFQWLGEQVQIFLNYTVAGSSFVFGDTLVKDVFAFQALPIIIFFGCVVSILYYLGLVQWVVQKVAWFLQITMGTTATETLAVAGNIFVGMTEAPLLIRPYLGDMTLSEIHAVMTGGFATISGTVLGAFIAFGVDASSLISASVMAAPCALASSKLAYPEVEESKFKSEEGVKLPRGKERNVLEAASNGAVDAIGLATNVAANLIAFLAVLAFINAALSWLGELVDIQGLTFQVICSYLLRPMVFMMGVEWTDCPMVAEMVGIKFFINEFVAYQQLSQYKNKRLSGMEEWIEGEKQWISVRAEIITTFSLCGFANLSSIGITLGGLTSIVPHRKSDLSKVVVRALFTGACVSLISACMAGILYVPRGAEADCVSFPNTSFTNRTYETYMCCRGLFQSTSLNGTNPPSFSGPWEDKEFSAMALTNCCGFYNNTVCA
# [5] = biological target: T5, Solute carrier family 28 member 3 (Homo sapiens, UniProt Q9HAS3); assay: Binding affinity to recombinant human CNT3 expressed in Saccharomyces cerevisiae assessed as inhibition of [3H]-uridine transport after 5 mins by scintillation counting analysis; format: ADME
# T5 sequence (Q9HAS3 whole entry): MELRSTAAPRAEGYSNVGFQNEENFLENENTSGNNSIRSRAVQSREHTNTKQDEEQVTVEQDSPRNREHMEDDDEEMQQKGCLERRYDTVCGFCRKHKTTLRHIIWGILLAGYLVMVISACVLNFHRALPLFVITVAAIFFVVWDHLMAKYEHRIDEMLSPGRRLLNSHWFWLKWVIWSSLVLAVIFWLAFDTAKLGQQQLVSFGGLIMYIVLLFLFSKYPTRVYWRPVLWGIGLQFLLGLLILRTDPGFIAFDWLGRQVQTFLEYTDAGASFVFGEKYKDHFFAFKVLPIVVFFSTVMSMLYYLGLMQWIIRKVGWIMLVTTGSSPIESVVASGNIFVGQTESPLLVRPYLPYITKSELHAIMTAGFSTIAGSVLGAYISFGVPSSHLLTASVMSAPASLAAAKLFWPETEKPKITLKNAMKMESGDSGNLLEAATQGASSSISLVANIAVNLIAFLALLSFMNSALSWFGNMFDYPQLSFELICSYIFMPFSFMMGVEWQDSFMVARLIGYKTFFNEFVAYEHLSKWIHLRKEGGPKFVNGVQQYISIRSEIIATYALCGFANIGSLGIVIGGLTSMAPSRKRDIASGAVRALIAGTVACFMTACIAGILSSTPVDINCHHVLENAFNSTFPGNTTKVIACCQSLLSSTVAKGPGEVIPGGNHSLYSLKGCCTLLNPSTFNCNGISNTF
# [6] = Tmax in CD-1 mouse brain at 60 mg/kg, iv administered as bolus dose in absence of ENT1 inhibitor NBMPR-P; format: ADME, organism-based; design: dose 60 mg/kg, route intravenous
# [7] = Tmax in CD-1 mouse brain at 60 mg/kg, iv administered as bolus dose in presence of ENT1 inhibitor NBMPR-P; format: ADME, organism-based; design: dose 60 mg/kg, route intravenous
# [8] = Cmax in CD-1 mouse brain at 60 mg/kg, iv administered as bolus dose in absence of ENT1 inhibitor NBMPR-P; format: ADME, organism-based; design: dose 60 mg/kg, route intravenous
# [9] = Cmax in CD-1 mouse brain at 60 mg/kg, iv administered as bolus dose in presence of ENT1 inhibitor NBMPR-P; format: ADME, organism-based; design: dose 60 mg/kg, route intravenous
# [10] = test system: Brain; assay: AUC (0 to 4 hrs) in CD-1 mouse brain at 60 mg/kg, iv administered as bolus dose in absence of ENT1 inhibitor NBMPR-P; format: ADME, organism-based; design: time < 4 hr, dose 60 mg/kg, route intravenous; settings: in vivo
# [11] = test system: Brain; assay: AUC (0 to 4 hrs) in CD-1 mouse brain at 60 mg/kg, iv administered as bolus dose in presence of ENT1 inhibitor NBMPR-P; format: ADME, organism-based; design: time < 4 hr, dose 60 mg/kg, route intravenous; settings: in vivo
# [12] = Apparent volume of distribution at steady state in CD-1 mouse at 60 mg/kg, iv administered as bolus dose in absence of ENT1 inhibitor NBMPR-P; format: ADME, organism-based; design: dose 60 mg/kg, route intravenous; settings: in vivo, read-out: Vdss(app)
# [13] = Apparent volume of distribution at steady state in CD-1 mouse at 60 mg/kg, iv administered as bolus dose in presence of ENT1 inhibitor NBMPR-P; format: ADME, organism-based; design: dose 60 mg/kg, route intravenous; settings: in vivo, read-out: Vdss(app)
# [14] = Elimination half life in CD-1 mouse at 60 mg/kg, iv administered as bolus dose in absence of ENT1 inhibitor NBMPR-P; format: ADME, organism-based; design: dose 60 mg/kg, route intravenous; settings: in vivo, read-out: beta t1/2 (converted)
# [15] = Elimination half life in CD-1 mouse at 60 mg/kg, iv administered as bolus dose in presence of ENT1 inhibitor NBMPR-P; format: ADME, organism-based; design: dose 60 mg/kg, route intravenous; settings: in vivo, read-out: beta t1/2 (converted)
# [16] = AUC (0 to infinity) in CD-1 mouse at 60 mg/kg, iv administered as bolus dose in absence of ENT1 inhibitor NBMPR-P; format: ADME, organism-based; design: time infinity, dose 60 mg/kg, route intravenous; settings: plasma
# [17] = AUC (0 to infinity) in CD-1 mouse at 60 mg/kg, iv administered as bolus dose in presence of ENT1 inhibitor NBMPR-P; format: ADME, organism-based; design: time infinity, dose 60 mg/kg, route intravenous; settings: plasma
smiles,measurement,setting,value
O=c1ccn([C@@H]2O[C@H](CO)[C@@H](O)[C@H]2O)c(=O)[nH]1 [URIDINE],pIC50,[1],4.28
same,pKi,[1]; read-out: Ki(app),4.29
same,pIC50,[2],3.63
same,pKi,[2]; read-out: Ki(app),3.62
same,pIC50,[3],5.24
same,pKi,[3]; read-out: Ki(app),5.28
same,pIC50,[4],4.49
same,pKi,[4]; read-out: Ki(app),4.51
same,pIC50,[5],5.27
same,pKi,[5]; read-out: Ki(app),5.47
Nc1nc(F)nc2c1ncn2[C@@H]1O[C@H](CO)[C@@H](O)[C@@H]1O [FLUDARABINE],Tmax,[6],0.88 h
same,Tmax,[7],1.63 h
same,Cmax,[8],6050 ng/g
same,Cmax,[9],801 ng/g
same,AUC,[10],11300 ng·h/g
same,AUC,[11],2490 ng·h/g
same,Vd,[12],1.6 L/kg
same,Vd,[13],2.6 L/kg
same,half-life,[14],1.7 h
same,half-life,[15],2.2 h
same,AUC(0-inf),[16],39600 ng·h/mL
same,AUC(0-inf),[17],65700 ng·h/mL
